Tests used:
[1] = system: IN/WHO strain house flies; assay: topical application, percent kill after 24 hours, susceptible IN/WHO strain; type: in vivo, female); conditions: for percent kill after 24 hours, synergist alone: insecticide 0, synergist 1 μg/fly
How it was run: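 Insecticide plus synergist in acetone, 1.0 μl applied to the thorax of CO2-anesthetized 3-to-5-day-old female IN/WHO house flies, doses in μg/fly. Flies held 10 per dish, 3-5 dishes per treatment, with skim milk. Percent mortality scored after 24 h.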

[2] = system: Rutgers A strain house flies; assay: topical application, percent kill after 24 hours, resistant Rutgers A strain; type: in vivo, female); conditions: for percent kill after 24 hours, with GS 13005: GS 13005 1.0 + synergist 5.0 μg/fly
How it was run: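 Synergist plus mobam, Diazinon or GS 13005 dissolved in acetone, applied as 1.0 μl to the thorax of CO2-anaesthetised 3-to-5 day old female Rutgers A (resistant) house flies; doses in μg/fly. Flies held 10 per dish, 3-5 dishes per treatment, with skim milk; mortality scored at 24 h.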

male mice = assay: extension of sleeping time of depressant drugs by synergists; type: in vivo, male mice (Swiss albino white); conditions: for Mean Sleeping Time, Noludar / Relative Sleeping Time, Noludar: Noludar 110 mg/kg; for Relative Sleeping Time, Noludar / Relative Sleeping Time, Secobarbital: treated/control; for Mean Sleeping Time, Secobarbital / Relative Sleeping Time, Secobarbital: Secobarbital 37 mg/kg
How it was run: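 Swiss albino male mice (~38 days, 25-30 g) given synergist at 74.0 or 110.0 mg/kg in corn oil 1 h before Secobarbital 37.0 mg/kg or Noludar 110.0 mg/kg in water. Sleeping time measured from drug dosing to righting-reflex recovery; relative sleeping time = treated ÷ drug-only control.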

[3] = Diazinon 0.03 + synergist 0.15 μg/fly
[4] = Mobam 0.05 + synergist 0.25 μg/fly
[5] = Mobam 0.10 + synergist 0.50 μg/fly
[6] = Mobam 0.20 + synergist 1 μg/fly
[7] = Mobam 0.15 + synergist 0.75 μg/fly
[8] = Mobam 0.30 + synergist 1.5 μg/fly
[9] = Mobam 0.60 + synergist 3.0 μg/fly
[10] = insecticide 0, synergist 7.5 μg/fly
[11] = synergist 110 mg/kg one hour prior
[12] = Diazinon 1.5 + synergist 7.5 μg/fly
[13] = synergist 74 mg/kg one hour prior
[14] = GS 13005 0.05 + synergist 0.25 μg/fly
[15] = GS 13005 0.10 + synergist 0.125 μg/fly
[16] = GS 13005 0.10 + synergist 0.25 μg/fly
[17] = GS 13005 0.10 + synergist 0.50 μg/fly
[18] = insecticide 0, synergist 5.0 μg/fly

SMILES	percent kill after 24 hours, with Diazinon [1, 3] [%]	percent kill after 24 hours, with Mobam [1, 4] [%]	percent kill after 24 hours, with Mobam [1, 5] [%]	percent kill after 24 hours, with Mobam [1, 6] [%]	percent kill after 24 hours, synergist alone [1] [%]	percent kill after 24 hours, with Mobam [2, 7] [%]	percent kill after 24 hours, with Mobam [2, 8] [%]	percent kill after 24 hours, with Mobam [2, 9] [%]	percent kill after 24 hours, synergist alone [2, 10] [%]	Mean Sleeping Time, Noludar (male mice; [11]) [min]	Relative Sleeping Time, Noludar (male mice; synergist 110 mg/kg)	Mean Sleeping Time, Secobarbital (male mice; [11]) [min]	Relative Sleeping Time, Secobarbital (male mice; synergist 110 mg/kg)	percent kill after 24 hours, with Diazinon [2, 12] [%]	Mean Sleeping Time, Secobarbital (male mice; [13]) [min]	Relative Sleeping Time, Secobarbital (male mice; synergist 74 mg/kg)	percent kill after 24 hours, with GS 13005 [1, 14] [%]	percent kill after 24 hours, with GS 13005 [1, 15] [%]	percent kill after 24 hours, with GS 13005 [1, 16] [%]	percent kill after 24 hours, with GS 13005 [1, 17] [%]	also measured
C#CCOCc1c(Cl)ccc(Cl)c1Cl [II-E]	45	5	33	100	0	17	70	99	0	45	1.1	44	1.4	–	–	–	–	–	–	–	percent mortality 24 hours, with Mobam ([1]; Mobam 0.13 μg/fly, synergist/insecticide 0.5/1): 30%; percent mortality 24 hours, with Mobam ([1]; Mobam 0.13 μg/fly, synergist/insecticide 1/1): 27%; percent mortality 24 hours, with Mobam ([1]; Mobam 0.13 μg/fly, synergist/insecticide 2/1): 17%; percent mortality 24 hours, with Mobam ([1]; Mobam 0.13 μg/fly, synergist/insecticide 5/1): 40%; percent mortality 24 hours, with Mobam ([1]; Mobam 0.25 μg/fly, synergist/insecticide 0.5/1): 53%; percent mortality 24 hours, with Mobam ([1]; Mobam 0.25 μg/fly, synergist/insecticide 1/1): 77%; percent mortality 24 hours, with Mobam ([1]; Mobam 0.25 μg/fly, synergist/insecticide 2/1): 73%; percent mortality 24 hours, with Mobam ([1]; Mobam 0.25 μg/fly, synergist/insecticide 5/1): 67%; percent mortality 24 hours, with Mobam ([1]; Mobam 0.50 μg/fly, synergist/insecticide 0.5/1): 97%; percent mortality 24 hours, with Mobam ([1]; Mobam 0.50 μg/fly, synergist/insecticide 1/1): 97%; percent mortality 24 hours, with Mobam ([1]; Mobam 0.50 μg/fly, synergist/insecticide 2/1): 93%; percent mortality 24 hours, with Mobam ([1]; Mobam 0.50 μg/fly, synergist/insecticide 5/1): 100%; percent mortality 24 hours, with Mobam ([1]; Mobam 1.0 μg/fly, synergist/insecticide 0.5/1): 100%; percent mortality 24 hours, with Mobam ([1]; Mobam 1.0 μg/fly, synergist/insecticide 1/1): 100%; percent mortality 24 hours, with Mobam ([1]; Mobam 1.0 μg/fly, synergist/insecticide 2/1): 100%; percent mortality 24 hours, with Mobam ([1]; Mobam 1.0 μg/fly, synergist/insecticide 5/1): 100%
C#CCON=C(C)c1ccc(Cl)cc1 [I-D]	50	8	20	92	0	19	95	100	0	58	1.5	56	1.7	69	62	1.9	–	–	–	–	–
C#CCOCc1ccc(Cl)c(Cl)c1 [II-C]	23	4	27	99	0	–	20	67	0	50	1.3	33	1.0	–	–	–	–	–	–	–	–
C#CCON=Cc1ccc(Cl)cc1Cl [I-G]	–	–	–	–	0	–	–	–	0	48	1.2	55	1.7	60	27	1.0	–	–	–	–	percent kill after 24 hours, with Diazinon ([1]; Diazinon 0.02 + synergist 0.10 μg/fly): 40%; percent kill after 24 hours, with Diazinon ([2]; Diazinon 3.0 + synergist 15 μg/fly): 100%; percent kill after 24 hours, synergist alone ([2]; insecticide 0, synergist 15 μg/fly): 0%
C#CCON=Cc1cccc([N+](=O)[O-])c1 [I-B]	22	0	0	73	0	–	40	–	–	70	2.4	106	1.7	–	54	1.5	2	13	27	73	percent kill after 24 hours, with Mobam ([1]; Mobam 0.20 + synergist 0.25 μg/fly): 13%; percent kill after 24 hours, with Mobam ([1]; Mobam 0.20 + synergist 0.50 μg/fly): 30%; percent kill after 24 hours, with Diazinon ([2]; Diazinon 1.0 + synergist 3.0 μg/fly): 5%; percent kill after 24 hours, with Diazinon ([2]; Diazinon 3.0 + synergist 3.0 μg/fly): 90%; percent kill after 24 hours, with GS 13005 [2]: 100%; percent kill after 24 hours, synergist alone [2, 18]: 0%
C#CCOCc1ccc([N+](=O)[O-])cc1 [II-Q, 4-nitrobenzyl 2-propynyl ether]	–	–	–	–	–	–	–	–	–	41	2.1	73	1.6	–	30	1.1	25	43	67	90	percent kill after 24 hours, synergist alone (GS 13005 part of Table XXXI) ([1]; GS 13005 0, synergist 1 μg/fly): 0%; percent kill after 24 hours, with GS 13005 [2]: 100%; percent kill after 24 hours, synergist alone [2, 18]: 0%

Source: patent publication US3954793A, “1-(2-Propynyl)-1 H-indazole compounds” (priority 1973, dated 1976)
